What was measured:
[1] = target: T1, BCL-2/BAK (Homo sapiens, UniProt P10415); experiment: Screening on inhibitory activity for BCL-2/BAK binding (Cisbio HTRF kit)
T1 construct: purchased Cisbio
How it was run: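 HTRF competition assay: Tag1-BCL-2 and Tag2-BAK working dilutions were 5 nM and 120 nM. Compound (200–0.0488 nM final, 4-fold, 7 points, duplicates) was incubated with the proteins for 15 min at 25 °C, then with Eu-cryptate/XL665 antibodies for ≥2 h at 25 °C. IC50 was derived from a four-parameter fit.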

[2] = target: T2, BCL-XL/BAK (Homo sapiens, UniProt Q07817); experiment: Screening on inhibitory activity for BCL-XL/BAK binding (Cisbio HTRF kit)
T2 construct: purchased Cisbio
How it was run: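 Tag1-BCL-XL and Tag2-BAK (2 nM and 80 nM before mixing) were combined with compounds at final 2000–0.488 nM (4-fold, 7 points, duplicates) for 15 min at 25° C. Eu3+ anti-Tag1 and XL665 anti-Tag2 were then added for ≥2 h at 25° C. HTRF (620/665 nm) gave IC50 by four-parameter fit.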

[3] = In vitro stability in human liver microsomes; format: in vitro ADME; settings: 1 μM
Protocol: Experimental Example 3: In Vitro Stability in Liver Microsome
300 μL of the final incubation system contains 30 μL of liver microsomes (protein concentration: 5 mg/mL), 30 μL of NADPH+MgCl2, 3 μL of the test compound (in acetonitrile), and 237 μL of PBS buffer (pH 7.4), wherein the proportion of the organic solvent (acetonitrile) is 1% (volume ratio). Two duplicate samples were prepared for each specie (mouse, rat and human), and each sample was 0.3 mL. Each tube which was added with 270 μL of a mixed solution of substrate and enzyme, and NADPH, after being pre-incubated at 37° C. for 5 min, was added with 30 μL of NADPH+MgCl2 and mixed. Then 50 μL of the mixture was taken at 0 min, 15 min, 30 min and 60 min, and added with 300 μL of glacial acetonitrile containing an internal standard to terminate the reaction.
50 μL of the incubated sample was added with 300 μL of glacial acetonitrile containing an internal standard (20 ng/mL diazepam) for precipitation, vortexed for 5 min, and centrifuged (13,000 rpm, 20° C.) for 10 min. 70 μL of supernatant was taken and diluted with 70 μL of ultrapure water. After being mixed well, 1 μL of the resulting sample was injected for analysis.

[4] = test system: human B-cell leukemia RS4;11 subcutaneous xenograft; experiment: Pharmacodynamics in human B-cell leukemia RS4;11 subcutaneous xenograft model; format: in vivo, NOD/SCID mice; settings: Day 17 after the end of administration
From the text: Experimental Example 5: Pharmacodynamics of Compounds in Human B-Cell Leukemia RS4; 11 Subcutaneous Xenograft Model
NOD/SCID mice, female, 9-10 weeks old (ages upon tumor cell grafting), body weight of 16.3-22.0 g, purchased from Beijing AniKeeper Biotech Co., Ltd.; production license number: SCXK (Jing) 2017-0006, and animal certification number: 11402400013155. Breeding environment: SPF grade. Mice were grafted subcutaneously on the right anterior dorsal side with 1×10^7 RS4;11 cells. The day of grafting was defined as day 0. When the mean tumor volume was 240 mm^3, the mice were randomly grouped according to the tumor size. The administration was performed as per Table 5 below.
Clinical symptoms observed during the experiment were recorded in the raw data. The calculation formula for tumor volume: Tumor volume (mm^3)=½×(a×b^2) (where a represents long diameter and b represents short diameter). The data were collected using StudyDirector™ software (version No. 3.1.399.19, supplier: Studylog System, Inc., S.San Francisco, CA, USA) in the experiment, including measurements of the long and short diameters of the tumor and weighing results of the animals. The raw data obtained from a balance and a vernier caliper were directly imported into the software, and any change in the data was recorded. Relative tumor proliferation rate (T/C %) refers to the percentage of the relative tumor volume or tumor weight of the treatment and control groups at a certain time point. The calculation formula is as follows:
T/C %=TRTV/CRTV×100% (TRTV: mean RTV for treatment group; CRTV: mean RTV for vehicle control group; RTV=Vt/V0, where V0 is the tumor volume of the animal upon grouping, and Vt is the tumor volume of the animal after treatment).
(T and C are the relative tumor volume (RTV) or tumor weight (TW) at a particular time point for the treatment and control groups, respectively).
All experimental results were expressed as mean tumor volume±SEM (standard error of mean). The relative tumor volume of the treatment group was compared with that of the control group for any significant difference by the independent sample T test. All data were analyzed using SPSS 18.0. p<0.05 was defined as a significant difference.

T1 sequence (P10415 whole entry, species assumed): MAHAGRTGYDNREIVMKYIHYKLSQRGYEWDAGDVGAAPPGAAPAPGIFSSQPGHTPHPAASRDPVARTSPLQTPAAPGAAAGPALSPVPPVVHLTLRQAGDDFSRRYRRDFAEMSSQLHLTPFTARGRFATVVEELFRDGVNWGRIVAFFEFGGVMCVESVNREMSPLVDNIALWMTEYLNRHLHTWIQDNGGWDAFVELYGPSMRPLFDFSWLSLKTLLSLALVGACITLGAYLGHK
T2 sequence (Q07817 whole entry, species assumed): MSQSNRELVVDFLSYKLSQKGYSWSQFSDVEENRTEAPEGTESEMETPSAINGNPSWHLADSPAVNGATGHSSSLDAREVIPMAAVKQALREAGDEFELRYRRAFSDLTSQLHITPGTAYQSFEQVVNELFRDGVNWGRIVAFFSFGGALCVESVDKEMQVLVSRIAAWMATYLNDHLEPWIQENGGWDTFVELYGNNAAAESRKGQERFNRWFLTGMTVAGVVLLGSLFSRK

Compound	IC50 [1]	IC50 [2]	Human Residual content after 60 min (%) [3]	Relative tumor volume (x ± S) ([4]; 25 mg/kg p.o. one dose)	T/C (%) ([4]; 25 mg/kg p.o. one dose)	TGI (%) ([4]; 25 mg/kg p.o. one dose)	Tumor volume (x ± S) ([4]; 25 mg/kg p.o. one dose)	Relative tumor volume (x ± S) ([4]; 50 mg/kg p.o. one dose)	T/C (%) ([4]; 50 mg/kg p.o. one dose)	TGI (%) ([4]; 50 mg/kg p.o. one dose)	Tumor volume (x ± S) ([4]; 50 mg/kg p.o. one dose)
CC1(C)CCC(CN2CCN(c3ccc(C(=O)NS(=O)(=O)c4ccc(NCC5CCOCC5)c([N+](=O)[O-])c4)c(Oc4cnc5[nH]ccc5c4)c3)CC2)=C(c2ccc(C(F)(F)F)cc2Cl)C1 [Compound 1-1, 4-(4-{[2-(2-chloro-4-trifluoromethylphenyl)-4,4-dimethylcyclohex-1-enyl]methyl}-piperazin-1-yl)-N-({3-nitro-4-[(tetrahydro-2H-pyran-4-ylmethyl)amino]phenyl}sulfonyl)-2-(1H-pyrrolo[2,3-b]pyridin-5-yloxy)-benzamide]	2.7 nM	133 nM	70.8%	4.39 ± 0.83	51.5%	48.5%	1024.97 ± 160.59 mm^3	1.92 ± 0.36	22.5%	77.5%	465.78 ± 95.68 mm^3
CC1(C)CCC(CN2CCN(c3ccc(C(=O)NS(=O)(=O)c4ccc(NC[C@H]5COCCO5)c([N+](=O)[O-])c4)c(Oc4cnc5[nH]ccc5c4)c3)CC2)=C(c2ccc(C(F)(F)F)cc2Cl)C1 [Compound 8-1]	2.8 nM	155 nM	86.3%	–	29.8%	70.2%	600.39 ± 32.88 mm^3	–	–	–	–
